Experimental data: patent publication US4584301A, “Diphenylmethylene piperidines, compositions and methods of use” (Warner-Lambert Company, priority 1985, dated 1986)
Where a name gives a salt, the structure may show the parent alone. Read-outs that look alike come from different tables or passages of the source.

Assays:
[1] = molecular target: Muscarinic Cholinergic receptor; experiment: Affinity for muscarinic cholinergic receptors in rat brain membranes; format: binding
Method: This test uses the displacement of [^3 H] quinuclidinyl benzilate ([^3 H]QNB) from specific muscarinic cholinergic receptors in the rat brain to measure in vitro anticholinergic activity of compounds. […]. A Long-Evans male rat weighing 180-200 grams is routinely used. The brain tissue homogenate along with appropriate concentrations of test compounds and [^3 H]QNB is incubated for one hour at 25° C. in a buffer medium of 50 mM Na-K PO4 pH 7.4. The material is filtered and washed on a millipore filter using Whatman GF/B filters. The filters are counted on a scintillation spectrophotometer. A maximal displacement by 0.1 mM oxotremorine is used to determine how much of the total binding is specific for muscarinic receptors.
Results: The results are reported as percent inhibition of total specific binding. Reference: Yamamura, Henry L. and Snyder, Solomon H. (1974). Muscarinic Cholinergic Binding in Rat Brain Proc. Nat. Acad. Sci. USA Vol 71 No. 5 pp. 1725-1729 May 1974.
(§1) for Dopamine D2, Muscarinic, and
(§2) Histamine H1 Receptors in Rat Brain Membranes

[2] = tested on: apomorphine-induced emesis in dogs; experiment: Apomorphine emesis assay; format: in vivo, dog; conditions: Canis lupus familiaris, oral, apomorphine hydrochloride 0.1 mg/kg s.c.
Method: 3. APOMORPHINE EMESIS ASSAY
Method: Dogs, unsegregated with respect to breed or sex, are used. They are fasted for 16 hours prior to the administration of the test compound. The test compounds are given orally by stomach tube at intervals prior to a subcutaneous injection of 0.1 mg/kg of apomorphine hydrochloride. The dogs are observed for changes in behavior or signs of neuropharmacologic action during the period between drugs and the emetic. After the apomorphine injection the frequency of vomiting episodes is recorded.
The number of dogs vomiting per total number tested, the number of vomiting episodes for each dog, and the average number of episodes are reported for dogs treated with the test compound and dogs treated with vehicle.
The drug is rated as being active if no vomiting episodes are seen in 50 percent or more of the dogs tested.

[3] = molecular target: brain dopamine receptors; experiment: Haloperidol receptor binding assay (HRBA), inhibition of 3H-haloperidol binding; conditions: rat corpus striatum, 0.6 nM 3H-haloperidol; for IC50: pH 7.7; for HRBA percent inhibition: 1 nM and 10 nM of test drug in primary screen, concentration per value not given
[4] = molecular target: Dopamine D2 receptor (Rattus norvegicus, UniProt P61169); experiment: Affinity for dopamine D2 receptors in rat brain membranes; format: binding
Chain of Dopamine D2 receptor (P61169 whole entry): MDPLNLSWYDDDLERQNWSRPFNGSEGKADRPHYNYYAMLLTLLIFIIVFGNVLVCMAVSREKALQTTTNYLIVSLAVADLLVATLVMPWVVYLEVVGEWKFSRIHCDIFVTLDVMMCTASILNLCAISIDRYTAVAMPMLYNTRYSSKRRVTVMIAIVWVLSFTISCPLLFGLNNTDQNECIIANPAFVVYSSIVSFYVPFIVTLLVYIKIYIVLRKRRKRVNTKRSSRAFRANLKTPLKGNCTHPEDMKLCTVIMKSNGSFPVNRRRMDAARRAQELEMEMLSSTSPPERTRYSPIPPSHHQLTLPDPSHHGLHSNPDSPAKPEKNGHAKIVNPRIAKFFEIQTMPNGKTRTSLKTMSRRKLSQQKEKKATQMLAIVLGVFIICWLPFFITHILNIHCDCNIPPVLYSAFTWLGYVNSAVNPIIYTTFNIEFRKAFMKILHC

[5] = molecular target: T1, Histamine H1 receptor (Rattus norvegicus, UniProt P31390); experiment: Affinity for histamine H1 receptors in rat brain membranes; format: binding
T1 construct: Histamine H1 Receptors in Rat Brain Membranes; from tissue; host or cells: rat brain membranes
T1 sequence (P31390 whole entry): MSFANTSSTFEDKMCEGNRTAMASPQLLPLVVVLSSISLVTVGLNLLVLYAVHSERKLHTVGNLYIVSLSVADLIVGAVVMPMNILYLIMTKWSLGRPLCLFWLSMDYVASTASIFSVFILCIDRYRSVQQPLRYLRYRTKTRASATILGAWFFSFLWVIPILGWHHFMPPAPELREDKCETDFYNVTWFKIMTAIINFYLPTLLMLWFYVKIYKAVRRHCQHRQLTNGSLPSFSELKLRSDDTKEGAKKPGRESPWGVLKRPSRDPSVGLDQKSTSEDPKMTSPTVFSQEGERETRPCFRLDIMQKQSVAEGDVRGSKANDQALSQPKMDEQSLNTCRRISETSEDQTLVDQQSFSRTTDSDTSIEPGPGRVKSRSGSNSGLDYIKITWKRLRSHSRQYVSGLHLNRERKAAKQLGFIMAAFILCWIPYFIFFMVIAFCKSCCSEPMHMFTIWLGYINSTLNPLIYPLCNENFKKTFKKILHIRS
Excerpt: as §1, §2
*Tran V. T., Lebovitz, R., Toll, L., and Snyder, S. H.: [^3 H]Doxepin
interactions with histamine H1 -receptors in guinea pig and rat brai

[6] = molecular target: muscarinic cholinergic receptors; format: binding; conditions: rat brain homogenate, [3H]QNB, 25° C., pH 7.4; for IC50: read-out: MRBA IC50; for MRBA percent inhibition of total specific binding: concentration not given
[7] = rat brain membranes, read-out: Receptor Ki, Histamine H1

Row | Structure (SMILES) | Ki [1] [nM] | Ki [4] [nM] | Ki [5, 7] [nM] | HRBA percent inhibition [3] [%] | MRBA percent inhibition of total specific binding [6] [%] | further results
1 | c1ccc(C(=C2CCN(CCN3CCOCC3)CC2)c2ccccc2)cc1 [Compound 1, Morpholine, 4-[2-[4-(diphenylmethylene)-1-piperidinyl]ethyl], dihydrochloride] | 32 | 31 | 20 | – | – | ED50 [2]: ~5 mg/kg; IC50 [3]: 29 nM; IC50 [6]: 148 nM
2 | CNC(=NC#N)NCCCN1CCC(=C(c2ccccc2)c2ccccc2)CC1 [Compound 22, Guanidine, N'-cyano-N-[3-[4-(diphenylmethylene)-1-piperidinyl]propyl]-N'-methyl] | – | – | – | 73 | 42 | –
3 | c1ccc(C(=C2CCN(CCN3CCCCC3)CC2)c2ccccc2)cc1 [Compound 3, Piperidine, 4-(diphenylmethylene)-1-[2-(1-piperidinyl)ethyl]-, dihydrochloride, hydrate (4:1)] | 3 | 105 | 12 | – | – | IC50 [3]: 135 nM; IC50 [6]: 18.1 nM
4 | CN1CCCC1CCN1CCC(=C(c2ccc(F)cc2)c2ccc(F)cc2)CC1 (stereo not drawn) [Compound 16, Piperidine, 4-[bis-(4-fluorophenyl)-methylene]-1-[2-(1-methyl-2-pyrrolidinyl)ethyl]-, (E)-2-butanedioate (1:2)] | – | – | – | 48 | 36 | –
5 | CN1CCCC1CCN1CCC(=C(c2ccccc2)c2ccccc2)CC1 (stereo not drawn) [Compound 5, Piperidine, 4-(diphenylmethylene)-1-[2-(1-methyl-2-pyrrolidinyl)ethyl]-, dihydrochloride, hemihydrate] | – | – | – | – | – | IC50 ([3]; unit inferred): 72.7 nM; IC50 [6]: 19.9 nM
6 | O=C(CCN1CCC(=C(c2ccccc2)c2ccccc2)CC1)N1CCCc2ccccc21 [Compound 7] | – | – | – | – | 52 | –
7 | O=C(CCN1CCC(=C(c2ccccc2)c2ccccc2)CC1)N1CCC(O)(O)CC1 [Compound 11, 4,4-Piperidinediol, 1-[3-[4-(diphenylmethylene)-1-piperidinyl]-1-oxopropyl]] | – | – | – | – | – | IC50 [3]: 367 nM; IC50 [6]: 38.3 nM
8 | Cl.Cl.Fc1ccc(C(=C2CCN(CCN3CCCCC3)CC2)c2ccc(F)cc2)cc1 [Compound 15, Piperidine, 4-[bis-(4-fluorophenyl)-methylene]-1-[2-(1-piperidinyl)ethyl]-, dihydrochloride] | 17 | 56 | – | 62 | 67 | Ki [5]: 86 nM
9 | Cl.Cl.c1ccc(C(=C2CCN(CCCCN3CCCCC3)CC2)c2ccccc2)cc1 [Compound 6, Piperidine, 4-(diphenylmethylene)-1-[4-[1-piperidinyl]butyl]-, dihydrochloride] | – | – | – | – | 83 | –
10 | c1ccc(C(=C2CCN(CCN3CCCC3)CC2)c2ccccc2)cc1 [Compound 2, Piperidine, 4-(diphenylmethylene)-1-[2-(1-pyrrolidinyl)ethyl]-,dihydrochloride] | – | – | – | – | – | IC50 ([3]; unit inferred): 309 nM; IC50 [6]: 8.4 nM
11 | CSC(=NC#N)NCCCN1CCC(=C(c2ccccc2)c2ccccc2)CC1 [Compound 21, Carbamimidothioic acid, N'-cyano-N-[3-[4-(diphenylmethylene)-1-piperidinyl]-propyl]-, methyl ester] | 8.6 | 32 | 0.38 | – | – | IC50 [3]: 39.2 nM; IC50 [6]: 64.7 nM
12 | OCCC1CCN(CCCN2CCC(=C(c3ccccc3)c3ccccc3)CC2)CC1 [Compound 13, 4-Piperidineethanol, 1-[3-[4-(diphenylmethylene)-1-piperidinyl]propyl]-,dihydrochloride, monohydrate] | 5 | 158 | 19.5 | 55 | 83 | –
13 | Fc1cccc(C(=C2CCN(CCCN3CCCCC3)CC2)c2cccc(F)c2)c1 [Compound 17, dihydrochloride] | – | – | – | – | 32 | –
14 | Fc1ccc(C(=C2CCN(CCCN3CCCCC3)CC2)c2ccc(F)cc2)cc1 [Compound 14, Piperidine, 1-[3-(1-piperidinyl)propyl]-4-[bis-(4-fluorophenyl)-methylene]-, dihydrochloride, hydrate (2:1)] | 23 | 67 | 16 | 73 | 57 | –
15 | c1ccc(C(=C2CCN(CCCN3CCCc4ccccc43)CC2)c2ccccc2)cc1 | 11 | 42 | 31 | – | – | –
16 | OC1CCN(CCCN2CCC(=C(c3ccccc3)c3ccccc3)CC2)CC1 [Compound 12, 4-Piperidinol, 1-[3-[4-(diphenylmethylene)-1-piperidinyl]propyl]-,dihydro-chloride, hemihydrate] | 15 | 25 | 6.1 | 89 | 63 | –
17 | O=C(CCN1CCC(=C(c2ccccc2)c2ccccc2)CC1)N1CC=C(Oc2ccc(F)cc2)CC1 [Compound 8, pyridine, 1-[3-[4-(diphenylmethylene-1-piperidinyl]-1-oxopropyl]-4-(fluorophenoxy)-1,2,3,6-tetrahydro-, 2-hydroxy-1,2,3-propane tricarboxylate(1:1), dihydrate] | – | – | – | – | 64 | –
18 | c1ccc(C(=C2CCN(CCCN3CCCCC3)CC2)c2ccccc2)cc1 [Compound 4, Piperidine, 4-(diphenylmethylene)-1-[3-(1-piperidinyl)propyl]-,dihydrochloride, hemihydrate] | – | – | – | – | – | IC50 [3]: 50.4 nM; IC50 [6]: 15 nM
19 | CC1(C)CC(=O)C=C(NCCN2CCC(=C(c3ccccc3)c3ccccc3)CC2)C1 [Compound 9, 2-Cyclohexen-1-one, 3-[[2-[4-(diphenylmethylene)-1-piperidinyl]ethyl]amino]-5,5-dimethyl] | 11 | 75 | 56 | 63 | 73 | –
20 | O=C(CCCN1CCCCC1)N1CCC(=C(c2ccccc2)c2ccccc2)CC1 [Compound 20, Piperidine, 4-(diphenylmethylene)-1-[1-oxo-4-(1-piperidinyl)butyl]-] | – | – | – | – | 54 | –
21 | Cl.Cl.Clc1cccc(C(=C2CCN(CCCN3CCCCC3)CC2)c2ccccc2)c1 [Compound 18, Piperidine, 4-[(3-chlorophenyl)phenylmethylene]-1-[3-(1-piperidinyl)propyl]-, dihydrochloride] | – | – | – | 52 | 37 | –
22 | Fc1cccc(C(=C2CCN(CCCN3CCCCC3)CC2)c2ccccc2)c1 [Compound 19, Piperidine, 4-[(3-fluorophenyl)phenylmethylene]-1-[3-(1-piperidinyl)propyl]-, dihydrochloride] | – | – | – | 36 | 45 | –
23 | Cl.Cl.O.c1ccc(C(=C2CCN(CCCN3CCCc4ccccc43)CC2)c2ccccc2)cc1 [Compound 10, Quinoline, 1-[3-[4-(diphenylmethylene]-1-piperidinyl]propyl]-1,2,3,4-tetrahydro-, dihydrochloride, monohydrate] | – | – | – | 69 | 83 | –
24 | N#CN=C(NCCCN1CCC(=C(c2ccccc2)c2ccccc2)CC1)N1CCCCC1 [Compound 23, 1-Piperidinecarboximidamine, N'-cyano-N-[3-[4-diphenylmethylene]-1-piperidinyl]propyl] | 2 | 28 | 1.7 | 55 | 86 | –
